Results: article PMC10035947, “Development of novel anilinoquinazoline-based carboxylic acids as non-classical carbonic anhydrase IX and XII inhibitors” (Journal of Enzyme Inhibition and Medicinal Chemistry, 2023)

Key:
[1] = system: 59 human cancer cell lines representing nine tumour subpanels; assay: NCI SRB assay, panel and subpanel summaries; settings: all cell lines; for Mean GI %: 10 μM; for Mean Growth Percent: 1.00E-5 Molar
[2] = system: SK-MEL-2; assay: NCI SRB assay; format: cell-based, human; settings: for GI%: SK-MEL-2, 10 μM; for Growth Percent: SK-MEL-2, 1.00E-5 Molar
[3] = system: OVCAR-8; assay: NCI SRB assay; format: cell-based, human; settings: for GI%: OVCAR-8, 10 μM; for Growth Percent: OVCAR-8, 1.00E-5 Molar
[4] = system: HT29; assay: NCI SRB assay; format: cell-based, human; settings: for GI%: HT29, 10 μM; for Growth Percent: HT29, 1.00E-5 Molar
[5] = target: T1, hCA XII (Homo sapiens, UniProt O43570); assay: stopped flow CO2 hydrase assay; format: biochemical; settings: for Selectivity ratio I/XII: KI hCA I / KI hCA XII; for Selectivity ratio II/XII: KI hCA II / KI hCA XII; for Ki: mean from 3 assays
T1 construct: made in house
Method in brief: (§1)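 Recombinant enzymes assayed by stopped-flow CO2 hydration using 0.2 mM phenol red at 557 nm in 20 mM Hepes pH 7.5 with 20 mM Na2SO4, CO2 1.7–17 mM. Inhibitor and enzyme preincubated 15 min at room temperature.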

[6] = target: T2, hCA I (Homo sapiens, UniProt P00915); assay: stopped flow CO2 hydrase assay; format: biochemical; settings: mean from 3 assays
T2 construct: made in house
Method in brief: as §1

[7] = target: T3, hCA IX (Homo sapiens, UniProt Q16790); assay: stopped flow CO2 hydrase assay; format: biochemical; settings: for Selectivity ratio II/IX: KI hCA II / KI hCA IX; for Ki: mean from 3 assays
T3 construct: made in house
Method in brief: as §1

[8] = system: SK-MEL-5; assay: NCI SRB assay; format: cell-based, human; settings: for GI%: SK-MEL-5, 10 μM; for Growth Percent: SK-MEL-5, 1.00E-5 Molar
[9] = system: SF-268; assay: NCI SRB assay; format: cell-based, human; settings: for GI%: SF-268, 10 μM; for Growth Percent: SF-268, 1.00E-5 Molar
[10] = system: SN12C; assay: NCI SRB assay; format: cell-based, human; settings: SN12C; for Growth Percent: 1.00E-5 Molar; for GI%: 10 μM
[11] = system: NCI/ADR-RES; assay: NCI SRB assay; format: cell-based, human; settings: for GI%: 10 μM; for Growth Percent: 1.00E-5 Molar
[12] = system: RPMI-8226; assay: NCI SRB assay; format: cell-based, human; settings: for GI%: RPMI-8226, 10 μM; for Growth Percent: RPMI-8226, 1.00E-5 Molar
[13] = system: NCI-H322M; assay: NCI SRB assay; format: cell-based, human; settings: for GI%: 10 μM; for Growth Percent: 1.00E-5 Molar
[14] = system: MDA-MB-435; assay: NCI SRB assay; format: cell-based; settings: for GI%: MDA-MB-435, 10 μM; for Growth Percent: MDA-MB-435, 1.00E-5 Molar
[15] = system: MALME-3M; assay: NCI SRB assay; format: cell-based, human; settings: for GI%: 10 μM; for Growth Percent: 1.00E-5 Molar
[16] = system: SNB-19; assay: NCI SRB assay; format: cell-based, human; settings: for GI%: SNB-19, 10 μM; for Growth Percent: SNB-19, 1.00E-5 Molar
[17] = system: KM12; assay: NCI SRB assay; format: cell-based, human; settings: for GI%: KM12, 10 μM; for Growth Percent: KM12, 1.00E-5 Molar
[18] = system: HS 578 T; assay: NCI SRB assay; format: cell-based, human; settings: for GI%: HS 578 T, 10 μM; for Growth Percent: HS 578T, 1.00E-5 Molar
[19] = system: K-562; assay: NCI SRB assay; format: cell-based, human; settings: for GI%: K-562, 10 μM; for Growth Percent: K-562, 1.00E-5 Molar
[20] = system: SK-MEL-28; assay: NCI SRB assay; format: cell-based, human; settings: for GI%: SK-MEL-28, 10 μM; for Growth Percent: SK-MEL-28, 1.00E-5 Molar
[21] = system: HOP-92; assay: NCI SRB assay; format: cell-based, human; settings: for GI%: HOP-92, 10 μM; for Growth Percent: HOP-92, 1.00E-5 Molar
[22] = system: DU-145; assay: NCI SRB assay; format: cell-based, human; settings: for GI%: DU-145, 10 μM; for Growth Percent: DU-145, 1.00E-5 Molar
[23] = system: SF-295; assay: NCI SRB assay; format: cell-based, human; settings: for GI%: SF-295, 10 μM; for Growth Percent: SF-295, 1.00E-5 Molar
[24] = system: PC-3; assay: NCI SRB assay; format: cell-based, human; settings: for GI%: PC-3, 10 μM; for Growth Percent: PC-3, 1.00E-5 Molar
[25] = system: HCT-116; assay: NCI SRB assay; format: cell-based, human; settings: for GI%: HCT-116, 10 μM; for Growth Percent: HCT-116, 1.00E-5 Molar
[26] = system: NCI-H226; assay: NCI SRB assay; format: cell-based, human; settings: for GI%: NCI-H226, 10 μM; for Growth Percent: NCI-H226, 1.00E-5 Molar
[27] = system: OVCAR-3; assay: NCI SRB assay; format: cell-based, human; settings: for GI%: OVCAR-3, 10 μM; for Growth Percent: OVCAR-3, 1.00E-5 Molar

T1 sequence (O43570 25-354): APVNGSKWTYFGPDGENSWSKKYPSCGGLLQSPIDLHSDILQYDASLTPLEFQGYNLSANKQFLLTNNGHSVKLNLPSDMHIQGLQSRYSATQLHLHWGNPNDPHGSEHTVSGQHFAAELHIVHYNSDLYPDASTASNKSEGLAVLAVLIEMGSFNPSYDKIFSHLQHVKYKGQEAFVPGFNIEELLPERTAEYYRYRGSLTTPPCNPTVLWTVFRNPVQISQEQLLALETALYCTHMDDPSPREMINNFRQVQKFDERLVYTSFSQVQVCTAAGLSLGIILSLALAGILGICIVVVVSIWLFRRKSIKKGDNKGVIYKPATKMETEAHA
T2 sequence (P00915 whole entry): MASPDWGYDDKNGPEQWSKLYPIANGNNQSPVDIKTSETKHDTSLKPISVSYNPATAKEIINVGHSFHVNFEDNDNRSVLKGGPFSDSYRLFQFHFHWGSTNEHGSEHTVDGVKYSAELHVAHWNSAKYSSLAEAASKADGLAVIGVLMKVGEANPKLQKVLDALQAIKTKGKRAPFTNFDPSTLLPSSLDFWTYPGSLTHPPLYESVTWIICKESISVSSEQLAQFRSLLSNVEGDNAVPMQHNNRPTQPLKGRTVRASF

## COc1ccc(-c2nc(Nc3ccccc3C(=O)O)c3ccccc3n2)cc1 [6c, 2-((2–(4-Methoxyphenyl)quinazolin-4-yl)amino)benzoic acid]
[1]
  Mean GI %: 52%
  Mean Growth Percent: 48.18%
[2]
  GI%: 57%
  Growth Percent: 43.49%
[3]
  GI%: 40%
  Growth Percent: 60.14%
[4]
  GI%: 37%
  Growth Percent: 63.13%
[5]
  Selectivity ratio I/XII: 11.2
  Selectivity ratio II/XII: 9.34
  Ki: 8.9 µM
[6]
  Ki: > 100 µM
[7]
  Selectivity ratio II/IX: 1.79
  Ki: 46.4 µM
[8]
  GI%: 70%
  Growth Percent: 30.49%
[9]
  GI%: 43%
  Growth Percent: 56.93%
[10]
  Growth Percent: 47.71%
[11]
  GI%: 46%
  Growth Percent: 54.40%
[12]
  GI%: 80%
  Growth Percent: 20.19%
[13]
  GI%: 24%
  Growth Percent: 75.73%
[14]
  GI%: 44%
  Growth Percent: 56.03%
[15]
  GI%: 31%
  Growth Percent: 68.60%
[16]
  GI%: 55%
  Growth Percent: 45.59%
[17]
  GI%: 64%
  Growth Percent: 35.66%
[18]
  GI%: 72%
  Growth Percent: 28.05%
[19]
  GI%: 69%
  Growth Percent: 31.34%
[20]
  GI%: 35%
  Growth Percent: 65.22%
[21]
  GI%: 78%
  Growth Percent: 21.82%
[22]
  GI%: 43%
  Growth Percent: 56.86%
[23]
  GI%: 60%
  Growth Percent: 39.93%
[24]
  GI%: 60%
  Growth Percent: 40.04%
[25]
  GI%: 62%
  Growth Percent: 37.54%
[26]
  GI%: 47%
  Growth Percent: 53.45%
[27]
  GI%: 54%
  Growth Percent: 43.93%

## Cc1ccc(-c2nc(Nc3cccc(C(=O)O)c3)c3ccccc3n2)cc1 [7b, 3-((2-(p-Tolyl)quinazolin-4-yl)amino)benzoic acid]
[1]
  Mean GI %: 14%
  Mean Growth Percent: 86.13%
[2]
  GI%: – (Only GI% higher than 20% are shown)
  Growth Percent: 112.04%
[3]
  GI%: – (Only GI% higher than 20% are shown)
  Growth Percent: 91.56%
[4]
  GI%: – (Only GI% higher than 20% are shown)
  Growth Percent: 105.90%
[5]
  Selectivity ratio I/XII: 109.9
  Selectivity ratio II/XII: 45.82
  Ki: 0.91 µM
[6]
  Ki: > 100 µM
[7]
  Selectivity ratio II/IX: 1.72
  Ki: 24.2 µM
[8]
  GI%: – (Only GI% higher than 20% are shown)
  Growth Percent: 85.67%
[9]
  GI%: 31%
  Growth Percent: 69.32%
[10]
  GI%: 23%
  Growth Percent: 76.64%
[11]
  GI%: – (Only GI% higher than 20% are shown)
  Growth Percent: 89.49%
[12]
  GI%: 29%
  Growth Percent: 70.78%
[13]
  GI%: – (Only GI% higher than 20% are shown)
  Growth Percent: 99.74%
[14]
  GI%: – (Only GI% higher than 20% are shown)
  Growth Percent: 100.82%
[15]
  GI%: – (Only GI% higher than 20% are shown)
  Growth Percent: 96.44%
[16]
  GI%: 28%
  Growth Percent: 71.76%
[17]
  GI%: 32%
  Growth Percent: 68.03%
[18]
  GI%: 34%
  Growth Percent: 65.83%
[19]
  GI%: 20%
  Growth Percent: 80.06%
[20]
  GI%: – (Only GI% higher than 20% are shown)
  Growth Percent: 97.02%
[21]
  GI%: 29%
  Growth Percent: 71.46%
[22]
  GI%: – (Only GI% higher than 20% are shown)
  Growth Percent: 96.55%
[23]
  GI%: 34%
  Growth Percent: 65.90%
[24]
  GI%: – (Only GI% higher than 20% are shown)
  Growth Percent: 80.52%
[25]
  GI%: 26%
  Growth Percent: 74.42%
[26]
  GI%: 25%
  Growth Percent: 75.32%
[27]
  GI%: – (Only GI% higher than 20% are shown)
  Growth Percent: 85.56%

## Cc1cccc(-c2nc(Nc3ccc(C(=O)O)cc3)c3ccccc3n2)c1 [8a, 4-((2-(m-Tolyl)quinazolin-4-yl)amino)benzoic acid]
[1]
  Mean GI %: 16%
  Mean Growth Percent: 84.51%
[2]
  GI%: – (Only GI% higher than 20% are shown)
  Growth Percent: 123.11%
[3]
  GI%: – (Only GI% higher than 20% are shown)
  Growth Percent: 82.44%
[4]
  GI%: – (Only GI% higher than 20% are shown)
  Growth Percent: 91.72%
[5]
  Selectivity ratio I/XII: 23.1
  Selectivity ratio II/XII: 2.45
  Ki: 3.8 µM
[6]
  Ki: 87.7 µM
[7]; KI hCA I / KI hCA IX
  Selectivity ratio I/IX: 20.4
[7]
  Selectivity ratio II/IX: 2.16
  Ki: 4.3 µM
[8]
  GI%: 29%
  Growth Percent: 71.03%
[9]
  GI%: 37%
  Growth Percent: 62.51%
[10]
  GI%: 42%
  Growth Percent: 58.07%
[11]
  GI%: – (Only GI% higher than 20% are shown)
  Growth Percent: 84.58%
[12]
  GI%: 30%
  Growth Percent: 70.27%
[13]
  GI%: – (Only GI% higher than 20% are shown)
  Growth Percent: 103.28%
[14]
  GI%: – (Only GI% higher than 20% are shown)
  Growth Percent: 96.58%
[15]
  GI%: – (Only GI% higher than 20% are shown)
  Growth Percent: 110.61%
[16]
  GI%: 33%
  Growth Percent: 67.24%
[17]
  GI%: 23%
  Growth Percent: 76.63%
[18]
  GI%: 48%
  Growth Percent: 51.51%
[19]
  GI%: – (Only GI% higher than 20% are shown)
  Growth Percent: 80.44%
[20]
  GI%: – (Only GI% higher than 20% are shown)
  Growth Percent: 96.84%
[21]
  GI%: 29%
  Growth Percent: 71.13%
[22]
  GI%: – (Only GI% higher than 20% are shown)
  Growth Percent: 87.83%
[23]
  GI%: 36%
  Growth Percent: 63.92%
[24]
  GI%: – (Only GI% higher than 20% are shown)
  Growth Percent: 83.31%
[25]
  GI%: – (Only GI% higher than 20% are shown)
  Growth Percent: 81.80%
[26]
  GI%: 52%
  Growth Percent: 47.62%
[27]
  GI%: – (Only GI% higher than 20% are shown)
  Growth Percent: 82.69%
